According to patent US20260070946A1, “TYR PEPTIDE COMPOSITIONS AND METHODS FOR USE” (UNIVERSITY OF MIAMI, priority 2022, published 2026):
Read-outs that look alike come from different tables or passages of the source. Residues, ends and D or L forms follow the SMILES beside them. No end group written: not given here.

What was measured:
HT1080 cells [1] = assay: Rapid cell proliferation assay, HT1080, cyclic versus non-cyclic TPA; format: cell-based; settings: 40 μg/ml
Protocol: Rapid cell proliferation assay was carried out using a Rapid Cell Proliferation Kit, EMD Biosciences (QIA127) (Galoian K, Tumor Biology 32 (4): 745-51, 2011). Cells were seeded at 5×10^4 cells/100 μl culture in the multi-well plate and incubated overnight at 37° C. in 5% CO2 incubator. The actual assay was performed the next day. The rapid cell proliferation assay is based on the activity of mitochondrial enzymes active in viable cells. PRP-1 was added to corresponding wells just after seeding, before overnight incubation. The colorimetric 96-well assay measures colorful product like formazan because of WST-1 tetrazolium salt cleavage by the mitochondrial dehydrogenases. The formazan formation is then quantified by measuring the change in absorbance at 450 nm in a microplate reader. The activity of mitochondrial dehydrogenases is proportional to cell number. No washing, harvesting, or solubilization steps are required. In this series of experiments, PRP-1 was added to corresponding wells immediately after seeding and cell attachment followed by overnight incubation according to the manufacturer's instructions.
The cyclic version was created to protect the peptide from being degraded by proteases in vivo. The cyclic peptide was tested for its potency in a rapid cell proliferation assay using HT1080 cells as described above using 40 μg/ml TPA or cyclic TPA in the assay.

[2] = system: HT1080 fibrosarcoma cells; assay: Survival experiment with HT1080 cells derived from doxorubicin relapsed mice; format: in vivo
Protocol: Additional survival experiments were undertaken. HT1080 fibrosarcoma cells were used in this experiment that derived from doxorubicin relapsed mice. The cells from tumor were excised as single cell suspension for quick isolation from tissue for subsequent luminescent labeling, then they were cultured in vitro and re-transplanted.

T47-D (ER+) cells = settings: cited from earlier work
[3] = system: MDA 231 (ER-) breast cell carcinoma cells; settings: cited from earlier work
HT1080 cells [4] = format: cell-based, human
Excerpt: Analysis of anti-proliferative activity in HT1080 cells was examined.

[5] = system: cardiomyocyte cell line AC16; assay: Cardiotoxicity in cardiomyocyte cell line AC16; format: cell-based; settings: 24 hours; TPA 40 μg/mL, Doxo 2 mM
Protocol: Cardiotoxicity results of TPA, Doxo and TPA+Doxo combo were analyzed in cardiomyocyte cell line AC16. Cells were treated 24 hours with C (control, DMSO 0.5%), TPA (40 μg/mL), Doxo (Doxorubicin, 2 mM), and TPA (40 μg/mL)+Doxo (2 mM). (FIG. 10). […] Thus, overall survival increases observed in vivo should be attributed to TPA's ability to target and eliminate cancer stem cells.

[6] = system: chondrosarcoma and fibrosarcoma
Nanog = Nanog mRNA expression in 3D HT1080 lysates; format: cell-based; settings: 3D lysates, TPA 20 μg/mL
Excerpt: (§1) Experiments herein (FIG. 13) indicated there was statistically significant inhibition in 3DHT1080 cell line for EZH2, and its targets, embryonic transcription factor Nanog (Villasante et al., Cell Cycle. 10 (9): 1488-498, 2011), and cancer stem cell marker […], ALDH1A1 (Li et al., Cancer Prev Res (Phila). 25 (3): 484-491 2012). Aldehyde dehydrogenase (ALDH) is an established marker of CSCs in several neoplasms. Cells expressing high levels of ALDH have been isolated in a number of human sarcoma cell lines, including the human chondrosarcoma SW 1353 cell line (Lohberger et al., PLOS One 7).

fibrosarcoma spheroids = assay: Neutral red cytotoxicity assay; format: cell-based
ALDHA = ALDHA mRNA expression in 3D HT1080 lysates; format: cell-based; settings: 3D lysates, TPA 20 μg/mL
Excerpt: as §1

[7] = Acute and cumulative toxicity in mice
[8] = system: 3D fibrosarcoma spheroids; assay: Self-renewal assay with 3D fibrosarcoma; format: cell-based
HT1080 fibrosarcoma = HT1080 fibrosarcoma nude mice model (IVIS, tumor volume, tumor weight); format: in vivo
Protocol: A nude mice model was used in which animals receive orthotopic inoculation of highly metastatic JJ012 chondrosarcoma or HT1080 fibrosarcoma tumor cell lines or primary cell lines labeled with extremely red bright fluorescent protein PTDT-N1.
Disease progression is evaluated through clinical signs and animal-relevant responses, tumor size analysis, real-time fluorescence and bioluminescence imaging (IVIS) of both in vivo and ex vivo disease-specific tumor microenvironments and lung metastases.
Monitoring of the solid tumors is as follows (when visible, tumors will be measured by noninvasive imaging or caliper at least weekly). Experimental endpoints depend on the site of transplantation. Mice are euthanized before they reach a tumor volume of 2 cm^3 for a single or multiple tumors. The overriding consideration for humane endpoints of these oncological experiments will be the overall health of the animal. Animals are weighed at least once a week for fast growing tumors (reaching endpoint before 3 months after transplantation) and at least once a month for slow growing tumors. Any tumor-bearing animal are euthanized immediately if the tumor impairs ambulation or eating. […] Animals bearing tumors in such locations are euthanized before the tumors reach the above-stated dimensions.
Tumor-bearing mice are photographed either at the experimental endpoint or using noninvasive imaging technologies to monitor tumor progression. Also contemplated is imaging in vivo for evidence of tumor progression (BLI, IVIS), and observance of clinical signs of metastases (listlessness, weight loss, or hunched posture). Tumors and lungs are harvested to confirm presence of lung metastases and further analyzed: tumors are weighed, photographed, and sectioned into samples designated half for 10% formalin fixation analysis or half for snap-freeze in liquid nitrogen for future analysis.

Nanog protein = Nanog protein expression in 3D HT1080 cells, western blot; format: cell-based; settings: 40 μg/ml
[9] = mouse, in vivo
EZH2 = EZH2 mRNA expression in 3D HT1080 lysates; format: cell-based; settings: 3D lysates, TPA 20 μg/mL
Excerpt: as §1

[10] = system: osteosarcoma cell line KHOS; assay: Rapid cell proliferation assay, KHOS; format: cell-based; settings: 48 h
Protocol: (§2) The effects of TPA on three osteosarcoma cell lines OSA, KHOS, MNNG was analyzed (FIG. 11). Rapid cell proliferation was measured by a Rapid Cell Proliferation Kit, EMD Biosciences (QIA127). Cells were seeded at 5×10^4 cells/100 μl culture in a multi-well plate and incubated overnight at 37° C. in 5% CO2 incubator. The actual assay was performed the next day. The rapid cell proliferation assay is based on the activity of mitochondrial enzymes active in viable cells. TPA was added to corresponding wells just after seeding, and before overnight incubation. The 96-well assay measures colorimetric product like formazan because of WST-1 tetrazolium salt cleavage by the mitochondrial dehydrogenases. TPA exerted its effect in all cell lines 48 hours after the incubation. […] (FIG. 11)

HOXC13 proteins = assay: Inhibition of HOXC13 proteins
[11] = system: osteosarcoma cell line MNNG; assay: Rapid cell proliferation assay, MNNG; format: cell-based; settings: only the highest dose of 40 μg/ml, 48 hours
Protocol: as §2

CC(C)C[C@@H]1NC(=O)[C@H](CCC(=O)O)NC(=O)[C@@H]2CCCN2C(=O)[C@H](CC(=O)O)NC(=O)[C@H](C)NC(=O)[C@@H]2CCCN2C(=O)CNC(=O)[C@H](CCCCN)NC(=O)[C@@H]2CCCN2C(=O)[C@H](CCC(=O)O)NC(=O)[C@@H]2CCCN2C(=O)[C@H]([C@@H](C)O)NC(=O)[C@H](CCC(=O)O)NC(=O)[C@H](CO)NC(=O)[C@H](Cc2ccc(OP(=O)(O)O)cc2)NC1=O [cyclic TPA, Cyclo(Ser-Glu-Thr-Pro-Glu-Pro-Lys-Gly-Pro-Ala-Asp-Pro-Glu-Leu-Tyr (PO3H2))] (HELM PEPTIDE1{A.D.P.E.L.[O=C([C@H](Cc1ccc(OP(=O)(O)O)cc1)N[*:1])[*:2]].S.E.T.P.E.P.K.G.P}$PEPTIDE1,PEPTIDE1,1:R1-15:R2$$$V2.0)
improvement over non-cyclic TPA (HT1080 cells [1]): ~1.5 fold | inhibition of cell growth compared to control (HT1080 cells [1]): over 50%

COc1cccc2c1C(=O)c1c(O)c3c(c(O)c1C2=O)C[C@@](O)(C(=O)CO)C[C@@H]3O[C@H]1C[C@H](N)[C@H](O)[C@H](C)O1 [doxorubicin]
median survival ([2]; 10 mice per group, control (PBS) 21 days): 28 days | overall Median Survival advantage ([2]; mice re-transplanted with cells from doxorubicin relapsed tumors): 33%

AGAPEPAEPAQPGVY [PRP-1]
inhibitory effect on cell growth (T47-D (ER+) cells): no inhibitory effect | inhibition of cell growth ([3]; 0.5 μg/ml PRP-1): 71% | inhibition of cell growth ([3]; 1 μg/ml PRP-1): 63% | inhibition of cell growth ([3]; 10 μg/ml): 44%

SETPEPKGPADPELY [TPA 1, SETPEPKGPADPELY]
IC50, anti-proliferative activity (HT1080 cells [4]): 21 mg/L | concentration of maximum effect (HT1080 cells [4]; HT1080 human fibrosarcoma, dose response): 40 µg/mL | effect on cancer stem cell spheroids (HT1080 cells [4]; visual, maximum effect with 40 μg/ml): destruction of cancer stem cell spheroids in dose response manner

SETPEPKGPADPELY [TPA, SETPEPKGPADPELY]
cytotoxicity in cardiomyocytes [5]: did not show any toxicity | inhibition of chondrosarcoma and fibrosarcoma growth [6]: 80-90% | Nanog mRNA fold decrease versus control (Nanog): 7.69 fold | reduced expression of Nanog (Nanog; normalized to GAPDH mRNA): 87% | cytotoxic effect relative to doxorubicin (DO) (fibrosarcoma spheroids; 40 μg/ml): almost that in cytotoxic doxorubicin | viability of fibrosarcoma spheroids (fibrosarcoma spheroids; increased concentration of TPA peptide): dose response decrease in viability | ALDHA mRNA fold decrease versus control (ALDHA): 3.22 fold | reduced expression of ALDHA (ALDHA; normalized to GAPDH mRNA): 69% | cumulative toxicity ([7]; following 14 days of TPA treatment): no cumulative toxicity | acute toxicity (change in weight or behavior) ([7]; up to 100 mg/kg): No acute toxicity | effect on spheroids in comparison to not treated control ([8]; 20 μg/ml): destruction and shrinkage of the spheroid | viability of the shrunken spheroids by viability assay ([8]; 20 μg/ml): non viable | spheroid formation ([8]; 40 μg/ml): completely prevented spheroid formation | tumor volume versus Control (HT1080 fibrosarcoma; by day 18): trend toward decreased tumor volume | tumor weights at necropsy versus Control (HT1080 fibrosarcoma; day after Day 14): no difference in tumor weights | IVIS tumor growth compared to Control (HT1080 fibrosarcoma; through Day 14, IVIS % Growth p<0.001): decreased growth | inhibition of Nanog protein in comparison with control (Nanog protein): 47% | blood count and chemistry [9]: no change in blood count and chemistry | EZH2 mRNA fold decrease versus control (EZH2): 5 fold | reduced expression of EZH2 (EZH2; normalized to GAPDH mRNA): 80% | growth inhibition [10]: 40% | inhibition of HOXC13 proteins (HOXC13 proteins): inhibits in a statistically significant manner | growth inhibition [11]: inhibited growth
